What was measured:
[1] = test system: three different cancer cell lines; conditions: all compounds 60 μM, FIG. 22B
Experimental: Known basal glucose compound fasentin and compound inhibitors generated in house were compared side by side in both glucose uptake assay and cell viability (MTT) assay. Glucose uptake or cell viability of mock treated samples was arbitrarily assigned a value of 100%. A. Glucose uptake assay in H1299 cancer cells. Concentration for all compounds was 30 μM. B. Cell viability assays in three different cancer cell lines. Concentration for all compounds was 60 μM.
Fasentin is a published inhibitor of basal glucose transport and known GLUT1 inhibitor.

H1299 lung cancer cells = test: MTT cell growth / viability assay, H1299; type: cell-based, human; conditions: for % cell death: concentration = IC50 for each compound
Experimental: (§1) Briefly, H1299 cancer cells were treated with or without the compounds (30 μM) in triplicates for 10 min before the glucose uptake assay. Cellular glucose uptake was measured by incubating cells in the glucose-free KRP buffer with […] [^3H]2-deoxyglucose (specific activity, 40 Ci/mmol) for 30 min in the absence or presence of compounds. After the cells were washed with ice-cold PBS and lysed by 0.2 N NaOH, the cell lysates were transferred to scintillation counting vials and the radioactivity in the cell lysates was quantified by liquid scintillation counting. Cell growth measurements were performed using an MTT assay in hexads in a 96-well tissue culture plate with 5,000 cells plated in each well. The cells were incubated in presence or absence of the compounds (30 μM) for 48 h. After incubation, cell viabilities were assayed using a 96-well SPECTRAMAX™ absorbance/fluorescence plate reader (Molecular Devices).
(§2) MTT assays are performed by the following well-established method. In a 96 well tissue culture plate 10,000 cells are plated in each well. The cells are incubated in presence or absence of the compounds for 18 h. 3-(4,5-Dimethylthiazol-2-yl)-2,5-diphenyltetrazolium bromide (MTT) is dissolved in PBS (10 mg/ml) and filter sterilized. Three hours before the end of the incubation 20 μL of MTT solution is added to each well containing cells in a 96-well plate. The plate is incubated in an incubator at 37° C. for 3 h. Media is aspirated gently and 200 μL of DMSO is added to each well to dissolve formazan crystals. The absorbance is measured at 550 nm for cell viability.

H1299 cells = test: Standard glucose uptake assay, H1299; type: cell-based, human; conditions: for glucose uptake inhibition compared with fasentin / Glucose transport inhibition (%): H1299; for glucose uptake inhibition compared with fasentin: all compounds 30 μM, FIG. 22A
Experimental: as §1
Cancer cells are treated with or without the compounds for 10 min before the glucose uptake assay. Cellular glucose uptake will be measured by incubating cells in glucose-free RPMI 1640 with […] [^3H]2-deoxyglucose (specific activity, 40 Ci/mmol) for 30 min in the absence and presence of compounds. After the cells are washed with ice-cold PBS and lysed, the cell lysates will be transferred to scintillation counting vials and the radioactivity in the cell lysates is quantified by liquid scintillation counting.

basal glucose transport = conditions: known glucose transport inhibitors, positive controls; cited from earlier work
[2] = test system: MCF12A normal breast cells; test: MTT cell death assay, MCF12A; type: cell-based, human; conditions: concentration = IC50 for each compound
Source text: (§3) Comparative assays using WZB-27, WZB-115, as well as two known anticancer drugs, cisplatin and taxol, were completed. In Table 4, the percent cell death in cancer cell lines as well as normal cell lines is shown. […] Comparing the breast cancer cell line MCF7, WZB-27 and WZB-115 kill somewhat fewer cells relative to taxol but more than cisplatin. Both WZB-27 and WZB-115 kill fewer of the normal breast cell line MCF12A than taxol or cisplatin. WZB-27 kills fewer of the normal breast cell line MCF12A than taxol or cisplatin while WZB-115 kills no more normal cells than either cisplatin or taxol.
as §2

NL20 normal lung cells = test: MTT cell death assay, NL20; type: cell-based, human; conditions: concentration = IC50 for each compound
Source text: as §3, §2

MCF7 breast cancer cells = test: MTT cell death assay, MCF7; type: cell-based, human; conditions: concentration = IC50 for each compound
Source text: as §3, §2

HeLa cells [3] = test: Glucose uptake assay (3H 2-DG), HeLa; type: cell-based, human
Experimental: Cells were treated with α-PGG for 20 minutes before ^3H-labeled 2-DG. […] Samples: 1. Mock; 2. […] WZB-25 (30 μM); 5. WZB-26 (30 μM); and 6. WZB-27 (30 μM). Compounds 1a and 2a were initially prepared as potential anti-diabetic analogs of α-PGG (FIG. 1). Given the tight SAR of this class of compounds, it was hypothesized that a more rigid scaffold (i.e., a benzene ring) might enhance the activity. […] Error bars in FIG. 8 represent standard deviations of the measurements. Samples were done in triplicates and the experiment was repeated three times.

[4] = test system: PARP protein (Caspase 3 substrate) in H1299 lung cancer cells; test: PARP cleavage assay, H1299; type: cell-based, human
Source text: A. Cell viability assay in RKO colon cancer cells with α-PGG, W25 (WZB-25), W27 (WZB-27), and C7 treatments. RKO cells contain high levels of p53 while RKO E6 cells contain much lower levels of p53. B. Apoptosis assay in H1299 lung cancer cells using cleaved PARP protein (89 kDa) as an indicator for Caspase 3 since PARP is a substrate of activated Caspase 3.
To determine if anti-cancer compounds W25 and W27 kill cancer cells using a p53 dependent or a p53-independent pathway, a cell killing assay was performed in RKO and RKO E6 cell lines. The difference between the two cell lines is that RKO cells contain much higher levels of p53 than RKO E6 cells.
Cells were harvested from plates, re-suspended with 3× sample buffer, and boiled for 5 min. Approximately […] of protein extract was loaded after protein concentration measurement by Pierce bicinchoninic acid (BCA) protein assay (Pierce Biotechnology, Inc. Rockford, Ill.). Samples were run on a 10% Bio-Tris NuPAGE gel (Invitrogen) and transferred to a polyvinylidene difluoride membrane (PVDF, Biorad). The membrane was incubated with antibodies specific to p53, or PARP, or β-actin. Specific protein bands were visualized after the development of film. Antibodies for p53 were purchased from Santa Cruz Biotechnology, Inc. (Santa Cruz, Calif., USA). […]

[5] = test system: RKO and RKO E6 cell lines; test: Cell killing assay in RKO and RKO E6 cells; type: cell-based, human; conditions: high vs low p53
Source text: A. Cell viability assay in RKO colon cancer cells. RKO cells contain high levels of p53 while RKO E6 cells contain much lower levels of p53. […] RKO cells have higher level of p53 while RKO-E6 is p53 deficient. ***p<0.001, **p<0.01. C.

[6] = test system: insulin-like glucose uptake stimulatory activity; test: Insulin-like activity of PGG analogs; type: cell-based
MCF-7 cells = test: Glucose uptake assay (3H 2-DG), MCF-7; type: cell-based, human; conditions: 30 μM
Experimental: (§4) Cells were treated with α-PGG for 20 minutes before ^3H-labeled 2-DG. Thirty minutes after the addition of 2-DG, cells were harvested, lysed, and counted for their respective glucose uptake. Samples: 1. Mock; 2. […] WZB-25 (30 μM); 5. WZB-26 (30 μM); and 6. WZB-27 (30 μM).
(§5) Compounds 1a and 2a were initially prepared as potential anti-diabetic analogs of α-PGG (FIG. 1). Given the tight SAR of this class of compounds, it was hypothesized that a more rigid scaffold (i.e., a benzene ring) might enhance the activity.

RKO cells = test: Glucose uptake assay (3H 2-DG), RKO; type: cell-based, human; conditions: 30 μM
Experimental: as §4, §5

HeLa cells [7] = test: Antibody-coupled flow cytometry study; type: cell-based, human; conditions: FIG. 5C
Source text: (§6) A. α-PGG treatment led to 70-80% reduction of cell viability as measured by a cell viability (MTT) assay. […] C. α-PGG treatment of HeLa cells led to a decrease in G1 phase cells but a significant increase (˜3-fold) in apoptotic cells as determined by an antibody-coupled flow cytometry study.

HeLa cells [8] = test: Apoptosis (ELISA) assay; type: cell-based, human; conditions: FIG. 5B
[9] = test system: RKO (colon), HeLa (cervical), and MCF-7 (breast) human cancer cells; test: Cell viability (MTT) assay of α-PGG treated cancer cells; type: cell-based; conditions: FIG. 5A
Source text: as §6

Oc1cccc(COc2ccc(Cl)cc2OCc2cccc(O)c2)c1 [WZB-133]
cancer cell death compared with fasentin [1]: more cancer cell death than fasentin
Cell growth inhibition (%) (H1299 lung cancer cells; Table 12): 14.3 ± 2.7%
glucose uptake inhibition compared with fasentin (H1299 cells): stronger inhibition than fasentin
Glucose transport inhibition (%) (H1299 cells; Table 12): 91.2 ± 0.8%

O=c1cc(-c2ccc(O)cc2)oc2cc(O)cc(O)c12 [apigenin]
IC50 (basal glucose transport): ≥ 60 µM

CC(=O)O[C@H]1C(=O)[C@@]2(C)[C@H]([C@H](OC(=O)c3ccccc3)[C@]3(O)C[C@H](OC(=O)[C@H](O)[C@@H](NC(=O)c4ccccc4)c4ccccc4)C(C)=C1C3(C)C)[C@]1(OC(C)=O)CO[C@@H]1C[C@@H]2O [Taxol, taxol]
% cell death [2]: 73.7 ± 5.6%
% cell death (H1299 lung cancer cells): 45.6 ± 4.9%
% cell death (NL20 normal lung cells): 53.8 ± 4.2%
% cell death (MCF7 breast cancer cells): 61.4 ± 7.1%

Oc1cccc(COc2cccc(OCc3cccc(O)c3)c2OCc2cccc(O)c2)c1 [WZB-131]
cancer cell death compared with fasentin [1]: more cancer cell death than fasentin
Cell growth inhibition (%) (H1299 lung cancer cells; Table 12): 12.9 ± 2.6%
glucose uptake inhibition compared with fasentin (H1299 cells): stronger inhibition than fasentin
Glucose transport inhibition (%) (H1299 cells; Table 12): 95.0 ± 1.6%

O=C(O[C@@H]1[C@@H](OC(=O)c2cc(O)c(O)c(O)c2)[C@@H]2OC[C@@H](O2)[C@H]1OC(=O)c1cc(O)c(O)c(O)c1)c1cc(O)c(O)c(O)c1 [WZB-25]
dose dependence of basal glucose transport inhibition (HeLa cells [3]; HeLa, FIG. 8): dose-dependent manner
PARP cleavage [4]: cleaved into a 89 kDa protein
cell killing / viability RKO vs RKO E6 [5]: killed about the same amounts of RKO cells and RKO E6 cells

COc1cccc(OC(=O)c2cc(O)c(O)c(O)c2)c1OC(=O)c1cc(O)c(O)c(O)c1 [Compound 1a]
Glucose transport inhibitory activity (%) (HeLa cells [3]; Hela, 30 μM): 46.3 ± 3.3%
insulin-like activity [6]: without any insulin-like activity
Glucose transport inhibitory activity (%) (MCF-7 cells): 33.0 ± 0.5%
Cell growth inhibition (%) (H1299 lung cancer cells; Table 2, 30 μM, 48 h): 36.0±6.1%
Glucose transport inhibition (%) (H1299 cells; Table 2, 30 μM, untreated cells 0% inhibition): 58.4±6.3%
% inhibition of basal glucose transport (H1299 cells; Table 3, 30 μM in H1299 cells, listed as WZB-26): 84.0 ± 1.9%
Glucose transport inhibitory activity (%) (RKO cells): 57.2 ± 4.4%

CC(=O)CC(=O)Nc1ccc(Cl)c(C(F)(F)F)c1 [Fasentin, fasentin]
IC50 (basal glucose transport): ≥ 50 µM

O=C(OC[C@H]1O[C@@H](OC(=O)c2cc(O)c(O)c(O)c2)[C@H](OC(=O)c2cc(O)c(O)c(O)c2)[C@@H](OC(=O)c2cc(O)c(O)c(O)c2)[C@@H]1OC(=O)c1cc(O)c(O)c(O)c1)c1cc(O)c(O)c(O)c1 [α-PGG, penta-galloyl-glucose]
concentration at which glucose transport inhibition starts (HeLa cells [3]; HeLa, 20 min preincubation): 5 µM
increase in apoptotic cells (HeLa cells [7]): ~3 fold
increase in apoptosis (HeLa cells [8]): more than 2 fold
reduction of cell viability [9]: 70-80%

N.N.[Cl][Pt][Cl] [Cisplatin, cisplatin]
% cell death [2]: 69.6 ± 2.9%
% cell death (H1299 lung cancer cells): 26.4 ± 3.8%
% cell death (NL20 normal lung cells): 58.4 ± 7.0%
% cell death (MCF7 breast cancer cells): 27.0 ± 1.9%
